For data set [1], the system named is Tat-induced HIV-1 transcription. In words: Inhibition of Tat-induced HIV-1 transcription in 293T cells transfected with Tat-expressing vector, HIV-1 LTR-LacZ reporter and CMV-EGFP reporter. The data set is classed as cell-based. The conditions noted are these: for inhibition of Tat-induced HIV-1 transcription in 293T cells: in words. As for the experimental part: (§1) The compounds from Table 2 were further evaluated using 293T cells transfected with Tat- and HIV-1 LTR-LacZ. […] Compounds 1H4, 3C8, and 1G3 were further evaluated in 293T cells transfected with Tat-expressing vector, HIV-1 LTR-LacZ reporter and CMV-EGFP reporter. Inhibitory properties of these compounds were evaluated using 293T cells transfected with Tat-expressing vector, HIV-1 LTR-LacZ reporter and CMV-EGFP reporter (Ammosova et al., 2005a). 293T cells were transfected with lipofectamine and then treated with each of the selected compounds for 18 hours. Then the cells were lysed and GFP and β-galactosidase activity was determined as we previously described (Ammosova et al., 2005a). Compound 1H4 was the most inhibitory with IC50=5 μM (FIG. 1B). […] Neither of the compounds was cytotoxic as determined by LDH assay (not shown).

For data set [2], the system named is HIV-1 transcription. The experiment in a line: Inhibition of transcription, FIG. 1A (293T cells transfected with Tat- and HIV-1 LTR-LacZ). The data set is classed as cell-based. As for the experimental part: as §1
Another data set deals with 293T cells. The experiment in a line: Measurements of cytotoxicity, FIG. 1A. The data set is classed as cell-based. As for the experimental part:
as §1

A further data set has as its system recombinant pNL4-3 HIV-1. In words: HIV-1 replication in MT4 cells infected with recombinant pNL4-3 HIV-1. The note with it: for inhibition of HIV-1 replication: MT4 cells, 1H4 at 10 μM or 25 μM (FIG. 2). The class given is cell-based. As for the experimental part: HIV-1 replication is inhibited by a small molecular mimetic of QVCF peptide. The 1H4 compound was evaluated to determine whether it could inhibit HIV-1 replication. MT4 cells were infected with recombinant pNL4-3 HIV-1 and treated with different concentrations of 1H4 compound and as a control 1G3 compound.

For the next data set, the system named is HIV-1 IIIB. The experiment in a line: Inhibition of HIV-1 replication, IIIB (Table 6). The class given is cell-based. The conditions noted are these: for inhibition of HIV-1 replication: Table 6 (IIIB, Q148R, N155H); for IC50: read-out: IIIB, IC50, HIV-1 replication. As to the method:
(§2) Compounds 1H4, 1E07, B03 and as a control 1G3 were analyzed for inhibition of HIV-1 replication and results are shown in Table 6.

Another data set deals with HIV-1 Q148R. In words: Inhibition of HIV-1 replication, Q148R (Table 6). The class given is cell-based. The note with it: read-out: Q148R, IC50. As to the method:
as §2

In the next data set the test system is HIV-1 N155H. The experiment in a line: Inhibition of HIV-1 replication, N155H (Table 6). The conditions noted are these: read-out: N155H, IC50. The data set is classed as cell-based. As to the method: as §2
For another data set, the system named is PP1. The experiment in a line: Tat-PP1 competition assay (PP1 activity). The data set is classed as biochemical. The note with it: for effect on Tat-mediated inhibition of PP1: 50 μM compound, 4 nM PP1, glycylglycine buffer (FIG. 3A). As to the method: (§3) Competition assays were performed with 4 nM PP1 in glycylglycine buffer. […] To analyze if 1H4 compound has an effect on the activity of CDK2 we incubated recombinant CDK2/cyclin E with histone H1 without or with the addition of increasing concentrations of 1H4.

Data set [3] has as its target recombinant CDK2/cyclin E (Homo sapiens, UniProt P24941). The experiment in a line: CDK2/cyclin E activity with histone H1. The data set is classed as biochemical. The conditions noted are these: increasing concentrations; histone H1 substrate. As to the method:
as §3

Data set [4] concerns HIV-1 transcription. The experiment in a line: Inhibition of Tat-induced HIV-1 transcription in Ad-Tat-infected CEM GFP reporter cells. The class given is cell-based. The conditions noted are these: for inhibition of HIV-1 transcription in CEM cells: CEM T-cells, 1H4-based library, in words. As to the method: (§4) Identification of the inhibitory compounds: The library was analyzed for the inhibition of HIV-1 transcription using reporter CEM GFP cells (courtesy of AIDS Reagents Program, NIH) that were infected with adenovirus expressing HIV-1 Tat activator protein (Ad-Tat) as previously described (Nekhai et al., 2007). Infection of CEM-GFP cells with Adeno-Tat induced HIV-1 transcription that was measured as gain of GFP fluorescence (Nekhai et al., 2007). Compounds were added at 25 μM concentration to the Ad-Tat-infected CEM-GFP cells and incubated for 24-48 hours. Cytotoxicity was evaluated by the uptake of propidium iodide (PI).

For a further data set, the system named is CEM GFP cells. The experiment in a line: Cytotoxicity in CEM cells by uptake of propidium iodide. The note with it: 1H4-based library. The class given is cell-based. As for the experimental part: as §4
Identification of addition inhibitors. The 1H4 compound was used to create a second library of compounds that would have similar backbone as 1H4. This second library contained 143 compounds. These compounds were analyzed for the inhibition of HIV-1 transcription and toxicity in CEM T-cells and 293T cells similar as described above for the analysis of the first library.

Take `COc1ccc(C(CNC(=O)CN2CCc3ccccc3C2)c2c[nH]c3ccccc23)cc1` (centres unmarked) [1H4]: the IC50 was found to be 5 µM in [1] (Human immunodeficiency virus 1, HEK-293T, read-out: Transcription inh. in 293T cells (IC-50)); 9.4 µM in the data set on HIV-1 IIIB; 4.7 µM in the data set with HIV-1 Q148R; 8 µM in the data set on HIV-1 N155H. The “inhibition of HIV-1 transcription (FIG. 1A)” value with HIV-1 transcription [2] is “inhibited HIV-1 transcription”. Besides, the “cytotoxicity (FIG. 1A)” value in the data set with 293T cells was “not toxic”. Also, the “inhibition of HIV-1 replication” value in the data set on recombinant pNL4-3 HIV-1 and in the data set on HIV-1 IIIB was “inhibited HIV-1 replication” in each case. Also, the “effect on Tat-mediated inhibition of PP1” value in the data set with PP1 is recorded as “relieved Tat-mediated inhibition of PP1”. Besides, the “effect on the activity of CDK2” value in data set [3] is “did not have a significant effect”.

For the molecule `COc1ccc(C(CNC(=O)CN2CCc3ccccc3C2)c2c[nH]c3ccccc23)cc1` (centres unmarked) [B03], the “inhibition of Tat-induced HIV-1 transcription in 293T cells” value (“inhibition … in 293T cells” for short) in [1] was “inhibitory”. Further, the “inhibition of HIV-1 replication” value in the data set on HIV-1 IIIB is listed as “not inhibitory”.

As for `COc1ccc(C(CNC(=O)CN2CCc3ccccc3C2)c2c[nH]c3ccccc23)cc1` (centres unmarked) [1E07], the “inhibition of HIV-1 transcription in CEM cells” value in the data set with HIV-1 transcription [4] is given as “inhibited HIV-1 transcription”. Also, in the data set with CEM GFP cells, the “toxicity in the propidium iodide uptake assay” value is listed as “not toxic”. Moreover, in [1], the “inhibition … in 293T cells” value is “inhibited HIV-1 transcription”. The “inhibition of HIV-1 replication” value in the data set with HIV-1 IIIB was “inhibited HIV-1 replication”. In addition, the figures for the IC50 in the data set with HIV-1 IIIB, with HIV-1 Q148R and in the data set on HIV-1 N155H were 2.5 µM, 1.5 µM and 3.2 µM, respectively.

On to `COc1ccc(C(CNC(=O)CN2CCc3ccccc3C2)c2c[nH]c3ccccc23)cc1` (centres unmarked) [E06], for which the “inhibition … in 293T cells” value in [1] is listed as “inhibitory”.

Take `CC(OC(=O)c1c2c(nc3ccccc13)/C(=C/c1ccc(Cl)cc1)CC2)C(=O)NC(N)=O` (centres unmarked): in the data set on HIV-1 transcription [4] (cell line not stated, appeared to increase the rate of transcription instead), the “inhibition of HIV-1 transcription” value is listed as “ineffective for inhibition of HIV-1 transcription”.

Regarding `COc1ccc(C(CNC(=O)CN2CCc3ccccc3C2)c2c[nH]c3ccccc23)cc1` (centres unmarked) [2F02], in the data set on HIV-1 transcription [4], the “inhibition of HIV-1 transcription in CEM cells” value was “inhibited HIV-1 transcription”. Moreover, the “inhibition … in 293T cells” value in [1] was “inhibited HIV-1 transcription”.

Consider `COc1ccc(C(CNC(=O)CN2CCc3ccccc3C2)c2c[nH]c3ccccc23)cc1` (centres unmarked) [1G3, reference compound], for which the “inhibition of HIV-1 transcription (FIG. 1A)” value with HIV-1 transcription [2] is given as “neither inhibitory nor toxic”. In addition, in the data set with 293T cells, the “cytotoxicity (FIG. 1A)” value is “neither inhibitory nor toxic”. Further, in the data set on recombinant pNL4-3 HIV-1 (MT4 cells (FIG. 2)), the “induction of HIV-1 replication” value was “about 2 fold”. Moreover, the “inhibition of HIV-1 replication” value in the data set with recombinant pNL4-3 HIV-1 is listed as “did not inhibit HIV-1 replication”. The IC50 in the data set with HIV-1 IIIB stood at 37 µM; in the data set on HIV-1 Q148R, 42 µM; with HIV-1 N155H, 59 µM. Also, in the data set with PP1, the “effect on Tat-mediated inhibition of PP1” value is “did not affect Tat-mediated inhibition of PP1”.

B1: Tat: HIV-1 Tat protein that binds to the RVxF pocket of PP1 (protein, UniProt P04608 1-86, looked up)
Protein Tat: MEPVDPRLEPWKHPGSQPKTACTNCYCKKCCFHCQVCFITKALGISYGRKKRRQRRRAHQNSQTHQASLSKQPTSQPRGDPTGPKE
Turning to B1, the “inhibition of PP1” value in the data set on PP1 (excess of Tat protein, 4 nM PP1 (FIG. 3A)) is on record as “inhibited PP1”.

For the origin of these results see patent publication US8278326B2, “Inhibitors of protein phosphatase-1 and uses thereof” (Howard University, priority 2008, dated 2012).
